Blank lines part the entries; values can stand above or below the compound they belong to.
What was measured:
Mus musculus [1] = experiment: Reduction in plasma glucose level in ob/ob mouse at 200 mg/kg/day for 5 days measured after 5 days; format: functional; design: scale not given: the % may be the effect or the level left
[2] = biological target: Voltage-gated inwardly rectifying potassium channel KCNH2 (Homo sapiens, UniProt Q12809); experiment: Inhibition of human ERG
[3] = Clearance in healthy human by 14 day test; format: ADME, organism-based; settings: in vivo
Homo sapiens [4] = species on record: Homo sapiens; experiment: Reduction in 5alpha/5beta-tetrahydrocortisol to tetrahydrocortisone ratio in healthy human at 15 mg qd relative to control; format: functional
[5] = Tmax in healthy human by 14 day test; format: ADME, organism-based; settings: in vivo
Homo sapiens [6] = species on record: Homo sapiens; experiment: Inhibition of prednisone to prednisolone conversion in healthy human at 15 mg qd relative to control; format: functional
[7] = Drug excretion in healthy human urine; format: ADME, tissue-based; settings: read-out: Drug excretion
Cynomolgus monkey [8] = experiment: Reduction in plasma insulin level in cynomolgus monkey at 0.1 to 3 mg/kg; format: functional, Macaca fascicularis; settings: dose mg/kg 0.1-3
[9] = Elimination half life in healthy human by 14 day test; format: ADME, organism-based; settings: in vivo, read-out: beta t1/2 (converted)
Cynomolgus monkey [10] = experiment: In vivo inhibition of 11beta-HSD1 in cynomolgus monkey assessed as inhibition of prednisone to prednisolone conversion at 0.1 to 3 mg/kg relative to control; format: functional, Macaca fascicularis; settings: dose mg/kg 0.1-3
[11] = Clearance in mouse; format: ADME, organism-based; settings: in vivo
[12] = biological target: T1, 11-beta-hydroxysteroid dehydrogenase 1 (Mus musculus, UniProt P50172); experiment: Inhibition of mouse 11beta-HSD1
[13] = Oral bioavailability in mouse; format: ADME, organism-based; settings: in vivo
[14] = biological target: 11-beta-hydroxysteroid dehydrogenase 1 (Rattus norvegicus, UniProt P16232); experiment: Inhibition of rat 11beta-HSD1 expressed in HEK293 cells; format: cell-based
[15] = biological target: T1, 11-beta-hydroxysteroid dehydrogenase 1; experiment: Inhibition of mouse 11beta-HSD1 expressed in HEK293 cells; format: cell-based
Homo sapiens [16] = species on record: Homo sapiens; experiment: Reduction in body weight in overweight/obese patient with hypertension at 7 mg relative to control; format: functional
Homo sapiens [17] = species on record: Homo sapiens; experiment: Reduction in LDL-cholesterol in overweight/obese patient with hypertension at 7 mg relative to control; format: functional; design: scale not given: the % may be the effect or the level left
Homo sapiens [18] = species on record: Homo sapiens; experiment: Reduction in HDL-cholesterol in overweight/obese patient with hypertension at 7 mg relative to control; format: functional; design: scale not given: the % may be the effect or the level left
Homo sapiens [19] = species on record: Homo sapiens; experiment: Toxicity in overweight/obese patient with hypertension assessed as increase in adrenal androgen level at 7 mg/day relative to control; format: organism-based; settings: in vivo
Mus musculus [20] = experiment: In vivo inhibition of 11beta-HSD1 in mouse assessed as inhibition of cortisone to cortisol conversion at 5 mg/kg relative to control; format: functional
Mus musculus [21] = experiment: In vivo inhibition of 11beta-HSD1 in mouse assessed as inhibition of cortisone to cortisol conversion at 100 mg/kg relative to control; format: functional
[22] = biological target: T2, 11-beta-hydroxysteroid dehydrogenase type 2 (Homo sapiens, UniProt P80365); experiment: Inhibition of human 11beta-HSD2
T2 sequence (P80365 whole entry): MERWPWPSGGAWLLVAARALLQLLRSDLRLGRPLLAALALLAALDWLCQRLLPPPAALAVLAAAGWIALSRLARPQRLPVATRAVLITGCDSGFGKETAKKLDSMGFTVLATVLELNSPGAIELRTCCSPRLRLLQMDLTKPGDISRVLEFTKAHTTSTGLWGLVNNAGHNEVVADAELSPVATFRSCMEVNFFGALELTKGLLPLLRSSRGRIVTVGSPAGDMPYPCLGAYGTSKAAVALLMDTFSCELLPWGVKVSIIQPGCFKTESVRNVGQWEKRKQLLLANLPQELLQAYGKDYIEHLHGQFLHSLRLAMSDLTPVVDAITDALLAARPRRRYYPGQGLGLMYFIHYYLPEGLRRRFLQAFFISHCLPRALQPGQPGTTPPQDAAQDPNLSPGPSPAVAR

[23] = Inhibition of N-terminal His-tagged full length dog 11beta-HSD1 assessed as inhibition of cortisone to cortisol conversion preincubated for 25 mins measured after 2 hrs by HTRF assay; design: species or system Canis lupus familiaris
Mus musculus [24] = experiment: Reduction in body weight in diet-induced obese mouse model at 20 mg/kg bid for 11 days relative to vehicle-treated control; format: functional; design: scale not given: the % may be the effect or the level left
Mus musculus [25] = experiment: In vivo inhibition of 11beta-HSD1 in mouse assessed as inhibition of [3H]cortisone to [3H]cortisol conversion at 10 mg/kg, po measured after 1 hr relative to control; format: functional
[26] = biological target: T3, 11-beta-hydroxysteroid dehydrogenase type 2 (Mus musculus, UniProt P51661); experiment: Inhibition of mouse 11beta-HSD2
T3 sequence (P51661 whole entry): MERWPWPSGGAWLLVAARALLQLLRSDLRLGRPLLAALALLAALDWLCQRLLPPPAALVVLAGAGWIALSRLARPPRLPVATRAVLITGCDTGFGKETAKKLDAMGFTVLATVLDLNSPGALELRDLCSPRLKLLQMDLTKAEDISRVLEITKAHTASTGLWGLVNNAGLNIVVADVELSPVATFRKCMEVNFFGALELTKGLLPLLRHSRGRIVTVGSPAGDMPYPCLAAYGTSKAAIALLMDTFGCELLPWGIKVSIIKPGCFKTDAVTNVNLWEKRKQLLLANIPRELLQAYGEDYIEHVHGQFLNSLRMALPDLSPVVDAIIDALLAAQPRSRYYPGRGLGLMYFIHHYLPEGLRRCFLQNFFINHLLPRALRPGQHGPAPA

Mus musculus [27] = experiment: Reduction in fasting blood glucose level in diet-induced obese mouse model at 20 mg/kg bid for 11 days relative to vehicle-treated control; format: functional; design: scale not given: the % may be the effect or the level left
Mus musculus [28] = experiment: Reduction in fasting blood glucose level in high fat diet-fed STZ-induced diabetes mouse model at 30 mg/kg bid for 9 days relative to vehicle-treated control; format: functional; design: scale not given: the % may be the effect or the level left
Mus musculus [29] = experiment: In vivo inhibition of 11beta-HSD1 in mouse assessed as inhibition of [3H]cortisone to [3H]cortisol conversion at 10 mg/kg, po measured after 4 hrs relative to control; format: functional
Mus musculus [30] = experiment: Reduction in cumulative food intake in diet-induced obese mouse model at 20 mg/kg bid for 11 days relative to vehicle-treated control; format: functional; design: scale not given: the % may be the effect or the level left
Mus musculus [31] = experiment: Reduction in postprandial blood glucose level in high fat diet-fed STZ-induced diabetes mouse model at 30 mg/kg bid for 9 days relative to vehicle-treated control; format: functional; design: scale not given: the % may be the effect or the level left
[32] = biological target: 11-beta-hydroxysteroid dehydrogenase 1 (Homo sapiens, UniProt P28845); experiment: Inhibition of human 11beta-HSD1
Mus musculus [33] = experiment: Reduction in aortic total cholesterol accumulation in high fat diet-fed mouse model at 10 mg/kg/day for 8 weeks relative to vehicle-treated control; design: scale not given: the % may be the effect or the level left
Mus musculus [34] = species on record: Mus musculus; experiment: Reduction in liver corticosterone level in adrenalectomized mouse model; format: functional
Mus musculus [35] = experiment: Ex vivo inhibition of 11beta-HSD1 in mouse fat at 20 mg/kg relative to control; format: functional
[36] = Clearance in rat; format: ADME, organism-based; settings: in vivo
[37] = Oral bioavailability in rat; format: ADME, organism-based; settings: in vivo
[38] = Inhibition of cytochrome P450 (unknown origin); format: ADME, Homo sapiens
Homo sapiens [39] = species on record: Homo sapiens; experiment: Reduction in hBA1c in type 2 diabetic patient; format: functional; design: scale not given: the % may be the effect or the level left
Homo sapiens [40] = species on record: Homo sapiens; experiment: Toxicity in type 2 diabetic patient assessed as increase in LDL-cholesterol level at 6 mg/day relative to placebo-control; format: organism-based; settings: in vivo
Homo sapiens [41] = species on record: Homo sapiens; experiment: Toxicity in type 2 diabetic patient assessed as increase in circulating adrenal androgen at 6 mg/day relative to placebo-control; format: organism-based; settings: in vivo

T1 sequence (P50172 whole entry): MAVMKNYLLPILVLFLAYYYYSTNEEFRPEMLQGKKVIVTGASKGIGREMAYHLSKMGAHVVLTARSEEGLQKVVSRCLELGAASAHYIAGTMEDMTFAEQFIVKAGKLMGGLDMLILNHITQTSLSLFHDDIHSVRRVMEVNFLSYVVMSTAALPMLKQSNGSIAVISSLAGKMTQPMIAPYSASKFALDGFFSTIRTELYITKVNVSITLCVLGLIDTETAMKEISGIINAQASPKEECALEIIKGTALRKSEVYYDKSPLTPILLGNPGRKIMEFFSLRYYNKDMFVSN
Sequence of 11-beta-hydroxysteroid dehydrogenase 1 (Rattus norvegicus, UniProt P16232) (P16232 whole entry): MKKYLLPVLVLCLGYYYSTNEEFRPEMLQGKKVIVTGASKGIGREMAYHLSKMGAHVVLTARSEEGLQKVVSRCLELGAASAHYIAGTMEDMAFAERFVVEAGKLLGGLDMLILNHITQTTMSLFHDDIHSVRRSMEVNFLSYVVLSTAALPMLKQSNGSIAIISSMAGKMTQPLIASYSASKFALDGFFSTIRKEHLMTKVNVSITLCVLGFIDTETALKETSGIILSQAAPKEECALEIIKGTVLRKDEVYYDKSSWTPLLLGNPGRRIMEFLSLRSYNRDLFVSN
Sequence of Voltage-gated inwardly rectifying potassium channel KCNH2 (Q12809 whole entry): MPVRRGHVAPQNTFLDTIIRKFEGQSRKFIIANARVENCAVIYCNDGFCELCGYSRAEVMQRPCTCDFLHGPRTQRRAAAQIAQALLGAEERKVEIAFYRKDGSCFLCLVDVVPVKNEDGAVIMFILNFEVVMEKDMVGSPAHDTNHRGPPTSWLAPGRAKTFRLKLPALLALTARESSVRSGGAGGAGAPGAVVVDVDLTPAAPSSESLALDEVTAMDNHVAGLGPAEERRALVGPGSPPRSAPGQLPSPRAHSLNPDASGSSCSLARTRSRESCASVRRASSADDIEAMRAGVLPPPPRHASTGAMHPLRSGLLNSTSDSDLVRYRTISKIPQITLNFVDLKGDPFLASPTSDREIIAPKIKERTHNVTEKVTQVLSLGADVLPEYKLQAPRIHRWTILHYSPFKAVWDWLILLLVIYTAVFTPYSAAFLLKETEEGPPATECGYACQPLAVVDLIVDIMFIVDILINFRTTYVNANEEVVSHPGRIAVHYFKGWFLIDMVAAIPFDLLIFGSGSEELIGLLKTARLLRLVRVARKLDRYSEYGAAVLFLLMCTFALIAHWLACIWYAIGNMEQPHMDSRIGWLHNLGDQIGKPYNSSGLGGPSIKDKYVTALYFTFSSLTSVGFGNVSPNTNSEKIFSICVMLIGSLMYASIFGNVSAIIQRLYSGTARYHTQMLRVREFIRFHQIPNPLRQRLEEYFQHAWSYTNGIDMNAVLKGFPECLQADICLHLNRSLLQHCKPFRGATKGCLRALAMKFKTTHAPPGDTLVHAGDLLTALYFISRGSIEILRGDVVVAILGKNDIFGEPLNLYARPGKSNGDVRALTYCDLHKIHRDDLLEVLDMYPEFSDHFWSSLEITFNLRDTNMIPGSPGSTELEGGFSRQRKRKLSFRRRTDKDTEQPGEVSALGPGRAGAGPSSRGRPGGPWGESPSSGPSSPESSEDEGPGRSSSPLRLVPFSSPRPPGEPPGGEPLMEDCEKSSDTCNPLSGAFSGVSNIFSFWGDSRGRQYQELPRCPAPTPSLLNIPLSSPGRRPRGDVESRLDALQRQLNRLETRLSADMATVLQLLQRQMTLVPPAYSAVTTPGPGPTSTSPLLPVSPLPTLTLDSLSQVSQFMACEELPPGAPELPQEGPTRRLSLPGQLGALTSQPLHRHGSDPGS
Sequence of 11-beta-hydroxysteroid dehydrogenase 1 (Homo sapiens, UniProt P28845) (P28845 whole entry): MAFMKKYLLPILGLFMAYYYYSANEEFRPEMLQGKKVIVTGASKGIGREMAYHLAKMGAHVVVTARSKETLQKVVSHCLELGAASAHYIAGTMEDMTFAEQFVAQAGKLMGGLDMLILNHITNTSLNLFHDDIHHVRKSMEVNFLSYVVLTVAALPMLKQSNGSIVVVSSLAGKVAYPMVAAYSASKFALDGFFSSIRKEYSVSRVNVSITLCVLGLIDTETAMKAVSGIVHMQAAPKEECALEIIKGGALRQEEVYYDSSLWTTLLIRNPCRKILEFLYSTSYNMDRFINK

Compound: O=C(CN1C(C(=O)c2ccccc2)=C(O)c2ccccc2S1(=O)=O)c1ccccc1
Activity (Mus musculus [1]): -27%
IC50 [2]: > 100000 nM

clearance [3]: 16.7 mL/min
Tmax [5]: 1 h
dose excreted [7]: < 1%
half-life [9]: 30 h
Compound: N#Cc1ccc(-c2ccc(S(=O)(=O)Nc3cccc(N)n3)cc2)cc1
%max (Homo sapiens [4]): 26%
%max (Homo sapiens [6]): 37%
%max (Cynomolgus monkey [8]): 60%
%max (Cynomolgus monkey [10]): 87%

clearance [11]: 130 mL/min/kg
IC50 [12]: 15 nM
bioavailability [13]: 3%
Compound: Cc1c(Cl)cccc1S(=O)(=O)N1CCCC[C@@H]1C(=O)N[C@H]1C2CC3CC1C[C@](O)(C3)C2

IC50 [14]: 287 nM
IC50 [15]: 528 nM
Compound: CS(=O)(=O)NCCC(=O)N1CCC(c2cc(C(=O)N3CCC[C@H]4CCCC[C@H]43)cs2)CC1

Compound: CCS(=O)(=O)CCCC12CCC(c3nnc(-c4ccccc4C(F)(F)F)n3C)(CC1)CC2 [MK-0736]
Activity (Homo sapiens [16]): -1.4 kg
Activity (Homo sapiens [17]): -12.3%
Activity (Homo sapiens [18]): -6.3%
fold change (FC) (Homo sapiens [19]): 2

Compound: CCN1CCC[C@@H]1C(=O)NC1C2CC3CC(C2)CC1C3 (stereo partly specified)
%max (Mus musculus [20]): 50%
%max (Mus musculus [21]): 82%

IC50 [22]: > 10000 nM
Compound: CCN(CC)C(=O)Cc1csc(NS(=O)(=O)c2cccc(Cl)c2C)n1

IC50 [23]: 120 nM
Compound: CSc1nc(N2C[C@@H]3[C@H](C2)[C@H]3C(=O)O)ccc1C(=O)NC12CC3CC(CC(C3)C1)C2

IC50 [26]: > 10000 nM
IC50 [22]: > 3000 nM
IC50 [32]: 8 nM
Compound: C1CCc2nnc(C34CC5CC(CC(C5)C3)C4)n2CC1
Activity (Mus musculus [24]): 7%
inhibition in vivo at 10 mg/kg (Mus musculus [25]): 59%
Activity (Mus musculus [27]): 15%
Activity (Mus musculus [28]): 37%
inhibition in vivo at 10 mg/kg (Mus musculus [29]): 17%
Activity (Mus musculus [30]): 12%
Activity (Mus musculus [31]): 37%
Activity (Mus musculus [33]): 84%

Compound: Cc1c(Cl)cccc1S(=O)(=O)Nc1nc(CC(=O)N2CCN(C)CC2)cs1
IC50 [22]: > 10000 nM
bioavailability [13]: 21%

Compound: COc1cc(C(=O)Nc2ccc(C(=O)N3CCCCC3)c(O)c2)cc(OC)c1OC
inhibition (INH) (Mus musculus [34]): 73%

clearance [36]: 11.7 mL/min/kg
bioavailability [37]: 69%
IC50 [38]: > 100000 nM
Compound: CC1CN(CC(=O)N[C@H]2C3CC4CC2C[C@](C(N)=O)(C4)C3)S(=O)(=O)N(c2c(Cl)cc(Cl)cc2Cl)C1 (stereo partly specified)
inhibition in vivo at 20 mg/kg (Mus musculus [35]): 96%

Compound: Cn1c(-c2ccccc2)nnc1C12CC3CC(CC(C3)C1)C2 [FIG 1]
inhibition in vivo at 10 mg/kg (Mus musculus [25]): 85%
inhibition in vivo at 10 mg/kg (Mus musculus [29]): 47%

IC50 [12]: 18 nM
Compound: Cc1c(Cl)cccc1S(=O)(=O)N1CCC[C@H](C(=O)N[C@H]2C[C@@H]3CC[C@@]2(C)C3(C)C)C1

IC50 [12]: 307 nM
Compound: CN(C(=O)c1csc(CNS(=O)(=O)c2cccc(Cl)c2)n1)C1CCCCCC1

clearance [11]: 42 mL/min/kg
IC50 [12]: 350 nM
bioavailability [13]: 22%
Compound: CC1(C)C(=O)N(c2cccc(S(C)(=O)=O)c2)C1c1cccc2nccnc12 (stereo unspecified)

Compound: F[C@H]1C[C@](c2ccc(Cl)cc2)(c2nnc(C3CC3)n2C2CC2)C1
Activity (Homo sapiens [39]): -0.3%
Activity (Homo sapiens [40]): 10.4%
Activity (Homo sapiens [41]): 20%

— ChEMBL document CHEMBL3286258, “Medicinal chemistry of inhibitors of 11β-hydroxysteroid dehydrogenase type 1 (11β-HSD1)” (J Med Chem, 2014)
